Measurements from patent publication US20230158025A1 (UNIVERSITY OF UTAH RESEARCH FOUNDATION, priority 2020, published 2023).
Where two headings read alike, the source gives them in different places. Blank lines part the entries; values can stand above or below the molecule they belong to.

Assays:
[1] = molecular target: recombinant human GALK1 (Homo sapiens, UniProt P51570); assay: hGALK1 biochemical activity assay (Kinase-Glo Plus, ATP depletion)
Procedure, shortened: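 Turnover is measured as ATP depletion by Kinase-Glo Plus luminescence after a 1 h room-temperature reaction. Compounds span 11 concentrations, 57.4 μM–0.97 nM, in final 20 mM HEPES pH 8.0 with 5 mM MgCl2. The substrate solution held 35 μM ATP; the added solution held 5 nM human or mouse GALK1 and 100 μM galactose.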

[2] = molecular target: T1, hGALK1m (Homo sapiens, UniProt P51570, E253A/K252A); assay: in vitro hGALK1 activity assay of the structure-based optimisation (Example 12, Tables 17-20); type: biochemical
T1 construct: made in house; host or cells: E. coli HMS174
T1 sequence (P51570 whole entry K252A/E253A): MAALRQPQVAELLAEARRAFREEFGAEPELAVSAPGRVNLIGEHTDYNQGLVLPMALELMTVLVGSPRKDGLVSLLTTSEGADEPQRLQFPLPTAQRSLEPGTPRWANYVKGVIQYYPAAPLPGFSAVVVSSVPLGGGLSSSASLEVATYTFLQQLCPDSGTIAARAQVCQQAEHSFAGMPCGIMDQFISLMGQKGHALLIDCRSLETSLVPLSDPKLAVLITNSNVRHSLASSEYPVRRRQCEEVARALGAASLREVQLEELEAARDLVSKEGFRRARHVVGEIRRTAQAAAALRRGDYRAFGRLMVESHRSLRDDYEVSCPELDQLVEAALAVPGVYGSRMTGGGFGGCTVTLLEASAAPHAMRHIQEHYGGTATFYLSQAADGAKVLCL

[3] = in vitro; settings: PAMPA, ADME P: PAMPA permeability (class)
[4] = PAMPA
[5] = molecular target: recombinant mouse GALK1 (Mus musculus, UniProt Q9R0N0); assay: mGALK1 biochemical activity assay (Kinase-Glo Plus, ATP depletion)
Chain of recombinant mouse GALK1 (Q9R0N0 whole entry): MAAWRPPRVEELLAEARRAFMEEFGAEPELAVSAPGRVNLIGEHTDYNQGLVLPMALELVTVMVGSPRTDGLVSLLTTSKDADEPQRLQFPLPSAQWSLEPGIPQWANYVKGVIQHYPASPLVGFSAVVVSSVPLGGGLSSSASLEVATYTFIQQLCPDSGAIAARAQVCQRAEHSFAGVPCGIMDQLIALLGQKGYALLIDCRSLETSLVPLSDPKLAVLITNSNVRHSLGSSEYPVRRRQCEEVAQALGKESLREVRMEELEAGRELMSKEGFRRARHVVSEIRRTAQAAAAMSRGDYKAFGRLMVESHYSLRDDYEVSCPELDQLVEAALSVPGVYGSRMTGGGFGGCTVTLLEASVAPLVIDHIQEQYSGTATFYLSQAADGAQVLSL
Procedure, shortened: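 Recombinant GALK1 (5 nM) with 100 μM galactose; GALK1 turnover read as ATP depletion by Kinase-Glo Plus luminescence. Reaction ran 1 h at room temperature before detection reagent was added.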

[6] = in vitro; settings: rat, microsomes
[7] = rat
[8] = PAMPA permeability
[9] = system: skin fibroblasts derived from GALT-deficient patients; assay: Gal-1-p accumulation assay in patient fibroblasts; type: cell-based, human
Description: Skin fibroblasts derived from GALT-deficient patients were maintained in galactose-free culture medium supplemented with 10% hexose-free fetal bovine serum (FBS). Before galactose challenge, inhibitors were added to the medium at designated concentrations and incubated at 37° C. for 4 hr. Then, galactose was added to reach 0.05% in the medium. After 4 hr of challenge, cells were collected and washed twice with PBS. Then, the cells were disrupted in 300 μL of ice-cold hypotonic buffer containing 25 mM Tris-HCl (pH 7.4), 25 mM NaCl, 0.5 mM EDTA, and protease inhibitor cocktail (Roche). The lysates were passed five times through a 30-gauge needle and centrifuged for 20 min at 16,000×g and 4° C. A small portion of supernatant was saved for protein concentration measurement. Gal-1-p level was measured using the alkaline phosphatase coupled method previously described. The gal-1-p concentration was normalized to protein concentration. The assay was analyzed using the paired t-test to determine the statistical difference between the compound treated cells and corresponding DMSO control. The two-sided p value less than 0.05 was considered statistically significant.
For measurement of cellular Gal-1P reduction, compounds at different concentrations were added to cultured patient fibroblast at 80% confluency. After incubating the compounds for 16 hours, 10 mM galactose was added to the culture. After another 4-hours, cells were washed with cold PBS buffer 3× and harvested for gal-1P measurement, according to previously published method. Liu et al., Bioorg. Med. Chem. Lett. 25(3): 721-727 (2015).
The in vitro hGALK1 activity assay was performed as previously described. Liu et al., Bioorg. Med. Chem. Lett. 25(3): 721-727 (2015). For the measurement of cellular Gal-1P reduction, compounds at different concentrations were added to cultured patient fibroblast at 80% confluency. After incubating the compounds for 16 hours, 10 mM galactose was added to the culture. […]

[10] = rat microsomal stability (RLM)
[11] = human liver microsome stability (HLM); type: in vitro ADME; settings: GALK lead profile
[12] = aqueous kinetic solubility; settings: aqueous kinetic solubility
[13] = mouse liver microsome stability (MLM); type: in vitro ADME; settings: GALK lead profile
[14] = recombinant human GALK1, Kinase-Glo Plus ATP depletion, read-out: hGALK
[15] = recombinant mouse GALK1, Kinase-Glo Plus ATP depletion, read-out: mGALK

Chain of recombinant human GALK1 (P51570 whole entry): as the sequence (P51570 whole entry K252A/E253A) above, with A252K, A253E counted along it

Compound: CC1=C(C(=O)Nc2cc(C(=O)O)ccn2)C(c2ccccc2Cl)N=C(Nc2nc3cc(Cl)ccc3o2)N1 (stereo not drawn) [Compound 9, 2-(2-((5-chlorobenzo[d]oxazol-2-yl)amino)-4-(2-chlorophenyl)-6-methyl-1,4-dihydropyrimidine-5-carboxamido)isonicotinic acid]
IC50 [1, 14]: 2.43 µM | Emax ([2]; Tables 18-19, read-out: Max Response (%)): 100% | IC50 ([2]; Tables 18-19 and text of Example 12): 1.7 µM | Papp [3]: < 100 nm/s | Perm. (1 × 10^−6 cm/sec) [4]: <1 1 × 10^−6 cm/sec | IC50 ([5]; Tables 2-15, 35 μM ATP, 100 μM galactose, 1 h, bracketed figure after some values is undefined and not reported, read-out: mGALK IC50): 6.11 µM | IC50 [5, 15]: 6.11 µM | half-life [6]: < 10 min | Metab. Stabil. (m) [7]: >30 m

IC50 ([1]; Tables 2-15, 35 μM ATP, 100 μM galactose, 1 h, bracketed figure after some values (e.g. −1.2) is undefined and not reported, read-out: hGALK IC50): 0.05 µM | IC50 [1, 14]: 0.05 µM | PAMPA ([8]; GALK lead profile, two values given): 485 10^−6 cm/s | Perm. (1 × 10^−6 cm/sec) ([8]; PAMPA): 459.1 1 × 10^−6 cm/sec | Papp ([8]; PAMPA, GALK lead profile, two values given): 3900 nm/s | IC50 ([2]; Tables 18-20 and text of Example 12): 0.014 µM | IC50 [5, 15]: 0.69 µM | RLM t ([10]; GALK lead profile): 16 min | Metab. Stabil. (m) ([10]; microsomal stability half-life): 17.1 m | HLM t [11]: 47 min | Sol. [12]: 1.27 µg/mL | MLM t [13]: 13 min
Compound: CC1=C(C(=O)NCc2cnn(C)c2)C(c2ccc(C)cc2Cl)N=C(Nc2nc3ccc(F)c(N)c3o2)N1 (stereo not drawn) [Compound 126, 2-((7-amino-6-fluorobenzo[d]oxazol-2-yl)amino)-4-(2-chloro-4-methylphenyl)-6-methyl-N-((1-methyl-1H-pyrazol-4-yl)methyl)-1,4-dihydropyrimidine-5-carboxamide]
effect on Gal-1P accumulation (FIG. 5A) ([9]; CG patient fibroblasts): inhibited Gal-1P accumulation | change of Gal-1P inhibition with concentration (FIG. 5B) ([9]; concentration increased from 0.5 μM to 1 μM): significantly greater inhibition of Gal-1P accumulation | change of Gal-1P inhibition with concentration (FIG. 5B) ([9]; concentration increased from 1 μM to 3 μM): did not increase significantly
